Among the data in US9029370B2, “Substituted benzamide derivatives” (Hoffmann-La Roche Inc., priority 2011, dated 2015) are Ki values, retold here.

Molecules are shown by their SMILES. Structures can show the parent of a compound that is named as a salt.

In assay [1] the target is mouse TAAR1 (Mus musculus (Mouse), UniProt Q923Y8). Put plainly: Radioligand binding assay on mouse TAAR1. The settings on record: mouse TAAR1, HEK-293 membranes; first value of the pair (before the slash); read-out: Ki (μM) mouse/rat. The method in brief:
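Membranes from HEK293 cells stably expressing mouse TAAR1, in HEPES-NaOH pH 7.4 with 0.1 mM EDTA, were incubated 1 h at 4°C with tritiated (S)-4-[(ethyl-phenyl-amino)-methyl]-4,5-dihydro-oxazol-2-ylamine and compound (10 pM–10 μM, duplicates). Nonspecific binding defined with 10 μM unlabeled ligand; bound radioactivity by filtration and scintillation counting.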

The target of assay [2] is rat TAAR1 (Rattus norvegicus (Rat), UniProt Q923Y9). Kind of assay: Radioligand binding assay on rat TAAR1. The settings on record: rat TAAR1, HEK-293 membranes; second value of the pair (line below); read-out: Ki (μM) mouse/rat. In a few lines:
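Membranes from HEK293 cells stably expressing rat TAAR1 were incubated 1 hr at 4 °C with ^3[H]-(S)-4-[(ethyl-phenyl-amino)-methyl]-4,5-dihydro-oxazol-2-ylamine; nonspecific binding was defined with 10 μM unlabeled ligand. Compounds were tested at 10 pM to 10 μM in duplicate. Bound radioactivity was read by filtration and scintillation counting.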

mouse TAAR1, sequence (Q923Y8 whole entry): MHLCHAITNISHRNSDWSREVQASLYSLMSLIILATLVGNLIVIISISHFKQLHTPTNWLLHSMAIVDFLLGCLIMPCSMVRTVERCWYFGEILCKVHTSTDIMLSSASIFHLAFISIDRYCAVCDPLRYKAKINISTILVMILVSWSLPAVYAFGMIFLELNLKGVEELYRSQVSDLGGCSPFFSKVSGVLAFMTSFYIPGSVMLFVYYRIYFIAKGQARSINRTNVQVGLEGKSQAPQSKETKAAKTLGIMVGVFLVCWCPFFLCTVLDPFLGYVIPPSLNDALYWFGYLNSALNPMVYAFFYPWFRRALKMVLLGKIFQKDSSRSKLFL
rat TAAR1, sequence (Q923Y9 whole entry): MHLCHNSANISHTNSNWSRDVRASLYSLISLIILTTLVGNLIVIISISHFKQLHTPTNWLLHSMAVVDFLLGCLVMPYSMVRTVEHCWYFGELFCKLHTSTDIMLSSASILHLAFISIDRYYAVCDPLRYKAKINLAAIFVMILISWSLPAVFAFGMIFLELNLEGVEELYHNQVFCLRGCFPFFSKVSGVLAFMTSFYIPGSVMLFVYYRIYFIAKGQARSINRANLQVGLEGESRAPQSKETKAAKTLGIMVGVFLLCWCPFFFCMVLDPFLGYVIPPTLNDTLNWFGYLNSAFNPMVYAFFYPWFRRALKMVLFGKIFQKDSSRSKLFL

On to `O=C(Nc1ccc([C@@H]2CNCCO2)c(F)c1)c1cnn(-c2ccc(OC(F)F)cc2)c1` [Example 86, (R)-1-(4-(Difluoromethoxy)phenyl)-N-(3-fluoro-4-(morpholin-2-yl)phenyl)-1H-pyrazole-4-carboxamide hydrochloride], for which the Ki in assay [1] stood at 0.0023 µM; in assay [2] it was 0.0007 µM.

For `O=C(Nc1ccc([C@H]2CNCCO2)c(F)c1)c1ccnc(C(F)(F)F)c1` [Example 87, (S)—N-(3-Fluoro-4-(morpholin-2-yl)phenyl)-2-(trifluoromethyl)isonicotinamide hydrochloride], the figures for the Ki in assay [1] and in assay [2] were 0.0105 µM and 0.0202 µM, respectively.

In the case of `CCOc1cc(C(=O)Nc2ccc([C@H]3CNCCO3)c(F)c2)ccn1` [Example 88, (S)-2-Ethoxy-N-(3-fluoro-4-(morpholin-2-yl)phenyl)isonicotinamide hydrochloride], the Ki in assay [1] came to 0.0034 µM; in assay [2] it was 0.0458 µM.

As to `CCOc1ccc(C(=O)Nc2ccc([C@H]3CNCCO3)c(F)c2)cn1` [Example 89, (S)-6-Ethoxy-N-(3-fluoro-4-(morpholin-2-yl)phenyl)nicotinamide hydrochloride], the Ki in assay [1] was 0.0024 µM; in assay [2], 0.0254 µM.

For the compound `CCOc1cc(C(=O)Nc2ccc([C@@H]3CNCCO3)c(Cl)c2)ccn1` [Example 91, (R)—N-(3-Chloro-4-(morpholin-2-yl)phenyl)-2-ethoxyisonicotinamide hydrochloride], the Ki in assay [1] was 0.0053 µM; in assay [2], 0.003 µM.

Take `CCOc1ccc(C(=O)Nc2ccc([C@@H]3CNCCO3)c(Cl)c2)cn1` [Example 92, (R)—N-(3-Chloro-4-(morpholin-2-yl)phenyl)-6-ethoxynicotinamide hydrochloride]: the Ki in assay [1] worked out at 0.0048 µM; in assay [2], 0.0045 µM.

Consider `O=C(Nc1ccc([C@@H]2CNCCO2)c(Cl)c1)c1cnn(-c2ccc(OC(F)F)cc2)c1` [Example 93, (R)—N-(3-Chloro-4-(morpholin-2-yl)phenyl)-1-(4-(difluoromethoxy)phenyl)-1H-pyrazole-4-carboxamide hydrochloride], for which the results for the Ki in assay [1] and in assay [2] were 0.0005 µM and 0.0012 µM, respectively.

With `CCOc1cc(C(=O)Nc2ccc([C@H]3CNCCO3)c(Cl)c2)ccn1` [Example 94, (S)—N-(3-Chloro-4-(morpholin-2-yl)phenyl)-2-ethoxyisonicotinamide hydrochloride], the Ki in assay [1] came out at 0.0033 µM; in assay [2], 0.0381 µM.

As to `CCOc1ccc(C(=O)Nc2ccc([C@H]3CNCCO3)c(Cl)c2)cn1` [Example 95, (S)—N-(3-Chloro-4-(morpholin-2-yl)phenyl)-6-ethoxynicotinamide hydrochloride], the values for the Ki in assay [1] and in assay [2] were 0.0033 µM and 0.035 µM, respectively.

Consider `O=C(Nc1ccc([C@H]2CNCCO2)c(Cl)c1)c1cnn(-c2ccc(OC(F)F)cc2)c1` [Example 96, (S)—N-(3-Chloro-4-(morpholin-2-yl)phenyl)-1-(4-(difluoromethoxy)phenyl)-1H-pyrazole-4-carboxamide hydrochloride], for which the Ki in assay [1] turned out to be 0.0013 µM; in assay [2] it was 0.0006 µM.

Consider `N#Cc1ccc(-n2cc(C(=O)Nc3ccc([C@H]4CNCCO4)cc3Cl)cn2)cc1` [Example 103, (S)—N-(2-Chloro-4-(morpholin-2-yl)phenyl)-1-(4-cyanophenyl)-1H-pyrazole-4-carboxamide hydrochloride], for which the Ki in assay [1] came to 0.0052 µM; in assay [2] it was 0.0031 µM.

Take `O=C(Nc1ccc([C@H]2CNCCO2)cc1F)c1cn(-c2ccc(OC(F)F)cc2)nn1` [Example 104, (S)-1-(4-(Difluoromethoxy)phenyl)-N-(2-fluoro-4-(morpholin-2-yl)phenyl)-1H-1,2,3-triazole-4-carboxamide]: the Ki worked out at 0.0019 µM in assay [1] and 0.034 µM in assay [2].

Consider `N#Cc1ccc(-n2cc(C(=O)Nc3ccc([C@H]4CNCCO4)c(Cl)c3)cn2)cc1` [Example 105, (S)—N-(3-Chloro-4-(morpholin-2-yl)phenyl)-1-(4-cyanophenyl)-1H-pyrazole-4-carboxamide hydrochloride], for which the figures for the Ki in assay [1] and in assay [2] were 0.0032 µM and 0.0027 µM, respectively.
